US8748485B2, “Compound and medical use thereof” (Ono Pharmaceuticals Co., Ltd., priority 2010, dated 2014)

Columns and labels:
[1] = Kinetic study in dogs (oral administration, plasma levodopa); details: dog, in vivo, po, 3 mg/kg; for Cmax/C6 hr (ratio of maximum plasma concentration and plasma concentration at 6 hours after oral administration, levodopa): male, beagle
Text: The relationship between the blood concentration of levodopa and side effects in patients who take levodopa has been gradually elucidated. […] In order to reduce the number of doses of levodopa and avoid side effects such as dyskinesia and wearing-off in patients who take levodopa, it is necessary to maintain the blood concentration of levodopa within a therapeutic range as long as possible.
These levodopa prodrugs are prodrugs containing an ester bond, and therefore, it is considered that among a number of enzymes, carboxyesterase plays the most important role in the process of producing levodopa by metabolizing the compound after the compound is administered in vivo. Therefore, as an animal species to be used for performing a kinetic study, dogs in which the organ distribution of carboxyesterase is most similar to that of humans were selected as subjects for evaluation.
The thus obtained drug solution was administered by gavage through a gastric tube into the stomach of dogs (male beagle dogs) which were fasted from the day before the administration. At 15 and 30 minutes, and 1, 2, 4, 6, and 8 hours after administration of the drug solution, 1 mL of blood was collected from a cephalic vein with a heparinized syringe. Immediately after the collection, the collected blood was centrifuged in a desktop centrifuge at 14500 rpm for 45 seconds. Then, acetonitrile containing 0.1125% formic acid was added to the thus obtained plasma in an amount as twice as large as the volume of the plasma, followed by stirring, and then, the resulting sample was stored at −20° C. until measurement.
The sample was thawed on the measurement day, followed by stirring and centrifugation at 13000 rpm for 3 minutes (at 4° C.). The resulting supernatant was filtered and the filtrate was analyzed by LC/MS/MS. The analysis was performed by LC/MS/MS under the following conditions.
Measurement Apparatus: API-5000 (manufactured by Applied Biosystems, Inc.)
Analytical column: CAPCELL PAK CR (1:4) (4.6 mm, I.D.×250 mm, 5 μm)
Analytical column temperature: 40° C.
Mobile phase: A: 5 mM ammonium formate (pH 3.9), B: acetonitrile (A/B=17/3)
Detection (levodopa): m/z (precursor): 196.19, m/z (product): 134.99
DP (Declustering Potential): −60
CE (Collision Energy): −25
CXP (Collision Cell Exit Potential): −17
Incidentally, the numerical value in the column which indicates the dose expressed in terms of levodopa refers to a dose equivalent to that of levodopa.

p53R2 = assay: Mutagenicity assay using mammalian cells (NESMAGET method); format: cell-based
Description: In the treatment of Parkinson's disease and/or Parkinson's syndrome, there is a possibility that a levodopa prodrug is continued to be taken over a long period of time of several years to several decades. Therefore, an evaluation was carried out as to whether or not the compound of the present invention has mutagenicity by a mutagenicity assay using mammalian cells.
A mutagenicity assay using mammalian cells was carried out as a commissioning test to be undertaken by Nissin Foods Holdings Co., Ltd. The present method also called NESMAGET method is a method in which the expression of p53R2 which is a DNA repair gene is detected by luciferase activity, and the specific experimental technique is described in JP-A-2005-000024 and Japanese Patent No. 4243716. In the determination as to whether or not the result of this test was positive, the luciferase activity of p53R2 in the case of a vehicle control (0.3% dimethylsulfoxide) was taken as 100%, and a concentration at which a relative luciferase activity exceeded 200% was determined to be “concentration at which mutagenicity was determined to be positive”.

| SMILES | AUC (area under the blood concentration-time curve of levodopa) [1] [μg^+ hr/mL] | Cmax/C6 hr (ratio of maximum plasma concentration and plasma concentration at 6 hours after oral administration, levodopa) [1] | Mutagenicity assay (NESMAGET) Concentration at which mutagenicity was determined to be positive (p53R2; concentration at which relative luciferase activity of p53R2 exceeded 200% (vehicle control 0.3% dimethylsulfoxide = 100%)) [µg/mL] | determination of mutagenicity (p53R2; positive = relative luciferase activity of p53R2 exceeded 200%, compound of the present invention up to 200 μg/mL) |
| --- | --- | --- | --- | --- |
| COC(=O)[C@@H](N)Cc1ccc(OC(=O)CC(C)(C)C)c(OC(=O)CC(C)(C)C)c1 [Compound X, 3,3-dimethyl-butyric acid 4-((S)-2-amino-2-methoxycarbonyl-ethyl)-2-(3,3-dimethyl-butyryloxy)phenyl ester] | 0.42 | 12.6 | – | – |
| CC(C)(COC(=O)c1cccs1)C(=O)Oc1ccc(C[C@H](N)C(=O)O)cc1OC(=O)C(C)(C)COC(=O)c1cccs1.Cl [Reference Example 6, (2S)-2-Amino-3-(3,4-bis((2,2-dimethyl-3-((thiophene-2-carbonyl)oxy)propanoyl)oxy)phenyl)propanoic acid hydrochloride] | 0.66 | 14.7 | 2.4 | positive for mutagenicity |
| CCC(C)(CC)C(=O)Oc1ccc(C[C@H](N)C(=O)O)cc1OC(=O)C(C)(CC)CC.Cl [Reference Example 18, (2S)-2-Amino-3-(3,4-bis((2-ethyl-2-methylbutanoyl)oxy)phenyl)propanoic acid hydrochloride] | 0.12 | 2.9 | – | – |
| CC(C)(C)CCC(=O)Oc1ccc(C[C@H](N)C(=O)O)cc1OC(=O)CCC(C)(C)C.Cl [Reference Example 19, (2S)-2-Amino-3-(3,4-bis((4,4-dimethylpentanoyl)oxy)phenyl)propanoic acid hydrochloride] | 0.70 | 221.2 | – | – |
| CCC(C)(CC)CC(=O)Oc1ccc(C[C@H](N)C(=O)O)cc1OC(=O)CC(C)(CC)CC.Cl [Reference Example 21, (2S)-2-Amino-3-(3,4-bis((3-ethyl-3-methylpentanoyl)oxy)phenyl)propanoic acid hydrochloride] | 0.27 | 8.8 | – | – |
| CC(C)C(CC(=O)Oc1ccc(C[C@H](N)C(=O)O)cc1OC(=O)CC(C(C)C)C(C)C)C(C)C.Cl [Reference Example 22, (2S)-2-Amino-3-(3,4-bis((3-isopropyl-4-methylpentanoyl)oxy)phenyl)propanoic acid hydrochloride] | 0.28 | 6.6 | – | – |
| Cc1ccccc1C(=O)Oc1ccc(C[C@H](N)C(=O)O)cc1OC(=O)c1ccccc1C.Cl [Reference Example 23, (2S)-2-Amino-3-(3,4-bis((2-methylbenzoyl)oxy)phenyl)propanoic acid hydrochloride] | 0.59 | 41.5 | – | – |
| N[C@@H](Cc1ccc(OC(=O)c2ccccc2C(F)(F)F)c(OC(=O)c2ccccc2C(F)(F)F)c1)C(=O)O [Reference Example 25, (2S)-2-Amino-3-(3,4-bis((2-(trifluoromethyl)benzoyl)oxy)phenyl)propanoic acid] | 0.31 | 24.2 | – | – |
| Cl.N[C@@H](Cc1ccc(OC(=O)C2CC2)c(OC(=O)C2CC2)c1)C(=O)O [Reference Example 26, (2S)-2-Amino-3-(3,4-bis((cyclopropanecarbonyl)oxy)phenyl)propanoic acid hydrochloride] | 0.45 | 18.0 | – | – |
| CC1(C(=O)Oc2ccc(C[C@H](N)C(=O)O)cc2OC(=O)C2(C)CC2)CC1.Cl [Reference Example 27, (2S)-2-Amino-3-(3,4-bis((1-methylcyclopropanecarbonyl)oxy)phenyl)propanoic acid hydrochloride] | 0.84 | 58.7 | – | – |
| Cl.N[C@@H](Cc1ccc(OC(=O)CC2CCCC2)c(OC(=O)CC2CCCC2)c1)C(=O)O [Reference Example 28, (2S)-2-Amino-3-(3,4-bis(2-cyclopentylacetoxy)phenyl)propanoic acid hydrochloride] | 0.68 | 304.4 | – | – |
| Cl.N[C@@H](Cc1ccc(OC(=O)CC2CCCCC2)c(OC(=O)CC2CCCCC2)c1)C(=O)O [Reference Example 29, (2S)-2-Amino-3-(3,4-bis(2-cyclohexylacetoxy)phenyl)propanoic acid hydrochloride] | 0.59 | 98.5 | – | – |
| CC1(CC(=O)Oc2ccc(C[C@H](N)C(=O)O)cc2OC(=O)CC2(C)CCCCC2)CCCCC1.Cl [Reference Example 30, (2S)-2-Amino-3-(3,4-bis(2-(1-methylcyclohexyl)acetoxy)phenyl)propanoic acid hydrochloride] | 0.36 | 12.8 | – | – |
| CC1(CC(=O)Oc2ccc(C[C@H](N)C(=O)O)cc2OC(=O)CC2(C)CCCC2)CCCC1.Cl [Reference Example 31, (2S)-2-Amino-3-(3,4-bis(2-(1-methylcyclopentyl)acetoxy)phenyl)propanoic acid hydrochloride] | 0.42 | 18.7 | – | – |
| CC(=O)OC(C)(C)C(=O)Oc1ccc(C[C@H](N)C(=O)O)cc1OC(=O)C(C)(C)OC(C)=O.Cl [Reference Example 32, (2S)-2-Amino-3-(3,4-bis((2-acetoxy-2-methylpropanoyl)oxy)phenyl)propanoic acid hydrochloride] | 0.53 | 40.7 | – | – |
| CCC(CC)(OC(=O)c1ccccc1)C(=O)Oc1ccc(C[C@H](N)C(=O)O)cc1OC(=O)C(CC)(CC)OC(=O)c1ccccc1.Cl [Reference Example 33, (2S)-2-Amino-3-(3,4-bis((2-(benzoyloxy)-2-ethylbutanoyl)oxy)phenyl)propanoic acid hydrochloride] | 0.003 | 2.0 | – | – |
| C[C@H](OC(=O)c1ccccc1)C(=O)Oc1ccc(C[C@H](N)C(=O)O)cc1OC(=O)[C@H](C)OC(=O)c1ccccc1.Cl [Reference Example 34, (2S)-2-Amino-3-(3,4-bis(((S)-2-(benzoyloxy)propanoyl)oxy)phenyl)propanoic acid hydrochloride] | 0.10 | 16.1 | – | – |
| C[C@@H](OC(=O)c1ccccc1)C(=O)Oc1ccc(C[C@H](N)C(=O)O)cc1OC(=O)[C@@H](C)OC(=O)c1ccccc1.Cl [Reference Example 35, (2S)-2-Amino-3-(3,4-bis(((R)-2-(benzoyloxy)propanoyl)oxy)phenyl)propanoic acid hydrochloride] | 0.77 | 1039.6 | – | – |
